Laboratory results reported in patent US10034836B2, “Formulations of guanylate cyclase C agonists and methods of use” (SYNERGY PHARMACEUTICALS, INC., priority 2008, dated 2018).
Where a SMILES comes first, the peptide text is derived from it. Bridges are numbered along the chain shown (N, C = ends).

Assays:
[1] = test system: healthy male and female subjects; details: in vivo, po
[2] = Stability in simulated intestinal fluid (SIF), HPLC analysis; type: in vitro ADME
Experimental: FIG. 2B: HPLC chromatographic spectra of SP-304 samples after incubation with: (A) heat-inactivated SIF for 300 minutes, or (B) SIF for 120 minutes. The arrows show the elution position of SP-304.
FIGS. 7D-1-7D-2: HPLC chromatograms of SP-304 incubated for 0 min in SIF (FIG. 7D-1) and 60 min in SIF (FIG. 7D-2), respectively. The arrows indicate the elution positions of the parent SP-304 peptides. […] These new peptide peaks represent degradation products of SP-304.
FIGS. 7E-1-7-E2: HPLC chromatograms of SP-332 incubated for 0 min in SIF (FIG. 7E-1) and 120 min in SIF (FIG. 7E-2), respectively. The arrows indicate the elution positions of the parent SP-332 peptides.
FIGS. 7F-1-7F-2: HPLC chromatograms of SP-333 incubated for 0 min in SIF (FIG. 7F-1) and 120 min in SIF (FIG. 7F-2), respectively. The arrows indicate the elution positions of the parent SP-333 peptides.
FIGS. 7G-1-7G-5: Incubation of SP-333 with SIF for 2, 6, 12 and 24 hrs. Effect of SIF digestion on the activity of SP-333 in T84 stimulation assay was determined (FIG. 7G-1) and samples were also analyzed by HPLC (FIGS. 7G2-5). The elution positions of the parent peptide and its metabolites are indicated by arrows.
The physical stability of SP-304 peptide exposed to SIF was evaluated by HPLC using the method described for SGF digestion. […]

With `CC(C)C[C@H](NC(=O)[C@@H]1CSSC[C@@H]2NC(=O)[C@H](CC(C)C)NC(=O)[C@H](CCC(=O)O)NC(=O)[C@@H](NC(=O)[C@H](CCC(=O)O)NC(=O)[C@H](CC(=O)O)NC(=O)[C@@H](N)CC(N)=O)CSSC[C@H](NC(=O)[C@H](C)NC(=O)[C@H](C(C)C)NC(=O)[C@H](CC(N)=O)NC(=O)[C@H](C(C)C)NC2=O)C(=O)N[C@@H]([C@@H](C)O)C(=O)NCC(=O)N1)C(=O)O` [SP-304, Asn^1-Asp^2-Glu^3-Cys^4-Glu^5-Leu^6-Cys^7-Val^8-Asn^9-Val^10-Ala^11-Cys^12-Thr^13-Gly^14-Cys^15-Leu^16] (H-NDECELCVNVACTGCL-OH; disulfide 4-12, 7-15) the “most prevalent adverse event: grade I diarrhea (CTCAE)” value [1] was 12.7% and the “HPLC analysis after incubation with heat-inactivated SIF” value [2] was “remained intact”.
